The values that follow come from ChEMBL document CHEMBL1821549, “Phylogeny-guided isolation of ethyl tumonoate A from the marine cyanobacterium cf. Oscillatoria margaritifera” (J Nat Prod, 2011).

The source made the active and inactive calls. The rule behind the calls is not given here.

The species entered for data set [1] is Mus musculus. Kind of data set: Inhibition of calcium (Ca2+) oscillations in Swiss-Webster mouse neocortical neurons at 10 uM by Fluo-3 dye based fluorimetric assay. It counts as functional.
The test system of data set [2] is RAW264.7. Kind of data set: Antiinflammatory activity in mouse RAW264.7 cells assessed as inhibition of LPS-induced nitric oxide production incubated for 24 hrs by Griess method. The note with it: RAW264.7, 24 h. It counts as functional, cell-based.
The subject of data set [3] is RAW264.7. Description: Cytotoxicity against mouse RAW264.7 cells after 48 hrs by MTT assay. It counts as cell-based. The note with it: raw264.7, 48 h.
For data set [4], the system named is NCI-H460. Kind of data set: Cytotoxicity against human H460 cells at =>10 ug/mL. The format is cell-based.

In the case of `CCCCCCCC[C@H](C)C(=O)N1CCC[C@H]1C(=O)O[C@@H](C(=O)O[C@@H](C)C(=O)O)[C@@H](C)CC`, the inhibition result in data set [1] is “inactive”.

On to `CCCCCCC/C=C(\C)[C@@H](O)[C@@H](C)C(=O)N1CCC[C@H]1C(=O)OCC` [ETHYL TUMONOATE A], for which the IC50 in data set [2] is 9.8 µM. Besides, the Activity entry in data set [3] and in data set [4] was “Non-toxic” each time. Further, in data set [1], the inhibition entry was “Active”.

`CCCCCCCCC(C)[C@H](OC(C)=O)[C@H](C)C(=O)N1CCC[C@H]1C(=O)O` (some centres not stated): in data set [1], the inhibition result is “Active”.

In the case of `CCCCCCC/C=C(\C)[C@@H](O)[C@@H](C)C(=O)N1CCC[C@H]1C(=O)O`, in data set [1], the inhibition result is “Active”.
